Legend:
[1] = system: α-isomaltosylglucosaccharide-forming enzyme; assay: Action on saccharides as substrates (TLC), enzyme of C9 strain; format: biochemical, Bacillus globisporus C9 strain; design: key: −: it showed no change; +: it showed a slight reduction of the color spot of the substrate and the formation of other reaction product; ++: it showed a high reduction of the color spot of the substrate and the formation of other reaction product; +++: it showed a substantial disappearance of the substrate spot and the formation of other reaction product; conditions: two units/g substrate, substrate 2% (w/v), 30° C., pH 6.0, 24 hours
Excerpt: (§1) To examine the saccharides in the supernatant, they were separated by developing twice on silica gel thin-layer chromatography (abbreviated as “TLC” hereinafter) using, as a developer, a mixture solution of n-butanol, pyridine, and water (=6:4:1 by volume), and, as a thin-layer plate, “[…]™ 60”, an aluminum plate (20×20 cm) for TLC commercialized by Merck & Co., Inc., Rahway, USA. The coloration of the separated total sugars by the sulfuric acid-methanol method and that of the reducing saccharides by the diphenylamine-aniline method detected a non-reducing saccharide positive at an Rf value of about 0.31 on the former detection method but negative on the latter detection method.
(§2) It was tested whether any saccharides can be used as substrates for α-isomaltosylglucosaccharide-forming enzyme. For the purpose, a solution of maltose, maltotriose, maltotetraose, maltopentaose, maltohexaose, maltoheptaose, isomaltose, isomaltotriose, panose, isopanose, α,α-trehalose, kojibiose, nigerose, neotrehalose, cellobiose, gentibiose, maltitol, maltotriitol, lactose, sucrose, erlose, selaginose, maltosyl glucoside, or isomaltosyl glucoside was prepared.
(§3) To each of the above solutions was added two units/g substrate of a purified specimen of α-isomaltosylglucosaccharide-forming enzyme from either Bacillus globisporus C9 strain obtained by the method in Experiment 4-2, Bacillus globisporus C11 strain obtained by the method in Experiment 7-2, Bacillus globisporus N75 strain obtained by the method in Experiment 11-2, or Arthrobacter globiformis A19 strain obtained by the method in Experiment 15-2, and the resulting each solution was adjusted to give a substrate concentration of 2% (w/v) and incubated at 30° C. and pH 6.0 for 24 hours, except for using pH 8.4 for the enzyme from Arthrobacter globiformis A19 strain. The enzyme solutions before and after the enzymatic reactions were respectively analyzed on TLC disclosed in Experiment 1 to confirm whether the enzymes acted on these substrates.

[2] = system: α-isomaltosylglucosaccharide-forming enzyme; assay: Action on saccharides as substrates (TLC), enzyme of C11 strain; format: biochemical, Bacillus globisporus C11 strain; design: key: −: it showed no change; +: it showed a slight reduction of the color spot of the substrate and the formation of other reaction product; ++: it showed a high reduction of the color spot of the substrate and the formation of other reaction product; +++: it showed a substantial disappearance of the substrate spot and the formation of other reaction product; conditions: two units/g substrate, substrate 2% (w/v), 30° C., pH 6.0, 24 hours
Excerpt: as §1, §2, §3

[3] = system: α-isomaltosylglucosaccharide-forming enzyme; assay: Action on saccharides as substrates (TLC), enzyme of N75 strain; format: biochemical, Bacillus globisporus N75 strain; design: key: −: it showed no change; +: it showed a slight reduction of the color spot of the substrate and the formation of other reaction product; ++: it showed a high reduction of the color spot of the substrate and the formation of other reaction product; +++: it showed a substantial disappearance of the substrate spot and the formation of other reaction product; conditions: two units/g substrate, substrate 2% (w/v), 30° C., pH 6.0, 24 hours
Excerpt: as §1, §2, §3

[4] = system: α-isomaltosylglucosaccharide-forming enzyme; assay: Action on saccharides as substrates (TLC), enzyme of A19 strain; format: biochemical, Arthrobacter globiformis A19 strain; design: key: −: it showed no change; +: it showed a slight reduction of the color spot of the substrate and the formation of other reaction product; ++: it showed a high reduction of the color spot of the substrate and the formation of other reaction product; +++: it showed a substantial disappearance of the substrate spot and the formation of other reaction product; conditions: two units/g substrate, substrate 2% (w/v), 30° C., pH 8.4, 24 hours
Excerpt: as §1, §2, §3

[5] = system: α-isomaltosylglucosaccharide-forming enzyme; assay: Transfer-acceptor specificity, enzyme of C9 strain; format: biochemical, Bacillus globisporus C9 strain; conditions: acceptor 1.6%, PINE-DEX #100 donor 4%, one unit/g donor, 30° C., pH 6.0, 24 hours
Summary of the method: (§4)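 Acceptor saccharides at 1.6% with partial starch hydrolyzate donor at 4% and purified enzyme at 1 unit/g donor, d.s.b., 30 °C, 24 h, pH 6.0 (pH 8.4 for A19 enzyme). Transfer products of mono- and disaccharide acceptors analysed by GLC, of trisaccharide acceptors by HPLC with refractometer detection.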

[6] = system: α-isomaltosylglucosaccharide-forming enzyme; assay: Transfer-acceptor specificity, enzyme of C11 strain; format: biochemical, Bacillus globisporus C11 strain; conditions: acceptor 1.6%, PINE-DEX #100 donor 4%, one unit/g donor, 30° C., pH 6.0, 24 hours
Summary of the method: as §4

[7] = system: α-isomaltosylglucosaccharide-forming enzyme; assay: Transfer-acceptor specificity, enzyme of N75 strain; format: biochemical, Bacillus globisporus N75 strain; conditions: acceptor 1.6%, PINE-DEX #100 donor 4%, one unit/g donor, 30° C., pH 6.0, 24 hours
Summary of the method: as §4

[8] = system: α-isomaltosylglucosaccharide-forming enzyme; assay: Transfer-acceptor specificity, enzyme of A19 strain; format: biochemical, Arthrobacter globiformis A19 strain; conditions: acceptor 1.6%, PINE-DEX #100 donor 4%, one unit/g donor, 30° C., pH 8.4, 24 hours
Summary of the method: as §4

Row | Compound | Enzymatic action, Enzyme of C9 strain [1] | Enzymatic action, Enzyme of C11 strain [2] | Enzymatic action, Enzyme of N75 strain [3] | Enzymatic action, Enzyme of A19 strain [4] | Product of transferring reaction, Enzyme of C9 strain [5] | Product of transferring reaction, Enzyme of C11 strain [6] | Product of transferring reaction, Enzyme of N75 strain [7] | Product of transferring reaction, Enzyme of A19 strain [8]
1 | O=C[C@H](O)[C@@H](O)[C@H](O[C@@H]1O[C@H](CO)[C@@H](O)[C@H](O)[C@H]1O)[C@H](O)CO [Cellobiose, cellobiose] | − | − | − | − | ++ (a saccharide-transferred product was detected in an amount over ten percent through transfer reaction to acceptor) | ++ (a saccharide-transferred product was detected in an amount over ten percent through transfer reaction to acceptor) | ++ (a saccharide-transferred product was detected in an amount over ten percent through transfer reaction to acceptor) | ++ (a saccharide-transferred product was detected in an amount over ten percent through transfer reaction to acceptor)
2 | OC[C@H]1O[C@@H](OC[C@H]2OC(O)[C@H](O)[C@@H](O)[C@@H]2O)[C@H](O)[C@@H](O)[C@@H]1O (stereo partly drawn) [Gentibiose, gentibiose] | − | − | − | − | ++ (a saccharide-transferred product was detected in an amount over ten percent through transfer reaction to acceptor) | ++ (a saccharide-transferred product was detected in an amount over ten percent through transfer reaction to acceptor) | ++ (a saccharide-transferred product was detected in an amount over ten percent through transfer reaction to acceptor) | + (a saccharide-transferred product was detected in an amount over one percent but less than 10% through transfer reaction to acceptor)
3 | OC[C@H]1O[C@H](O[C@H]2[C@H](O)[C@@H](O)[C@@H](O[C@H]3[C@H](O)[C@@H](O)[C@@H](O[C@H]4[C@H](O)[C@@H](O)C(O)O[C@@H]4CO)O[C@@H]3CO)O[C@@H]2CO)[C@H](O)[C@@H](O)[C@@H]1O (stereo partly drawn) [Maltotetraose, maltotetraose] | +++ | +++ | +++ | +++ |  |  |  | 
4 | OC[C@@H](O)[C@@H](O[C@H]1O[C@H](CO)[C@@H](O[C@H]2O[C@H](CO)[C@@H](O)[C@H](O)[C@H]2O)[C@H](O)[C@H]1O)[C@H](O)[C@@H](O)CO [Maltotriitol, maltotriitol] | + | + | + | + |  |  |  | 
5 | OC[C@H]1O[C@@H](O[C@H]2O[C@H](CO)[C@@H](O)[C@H](O)[C@H]2O)[C@H](O)[C@@H](O)[C@@H]1O [Neotrehalose, neotrehalose] | + | + | + | + |  |  |  | 
6 | OC[C@H]1O[C@H](O[C@H]2[C@H](O)[C@@H](CO)OC(O)[C@@H]2O)[C@H](O)[C@@H](O)[C@@H]1O (stereo partly drawn) [Nigerose, nigerose] | + | + | + | + |  |  |  | 
7 | OC[C@H]1O[C@H](OC[C@H]2O[C@H](O[C@H]3[C@H](O)[C@@H](O)C(O)O[C@@H]3CO)[C@H](O)[C@@H](O)[C@@H]2O)[C@H](O)[C@@H](O)[C@@H]1O (stereo partly drawn) [Panose, panose] | − | − | − | − |  |  |  | 
8 | OC[C@H]1O[C@H](O[C@H]2O[C@H](CO)[C@@H](O)[C@H](O)[C@H]2O[C@H]2O[C@H](CO)[C@@H](O)[C@H](O)[C@H]2O)[C@H](O)[C@@H](O)[C@@H]1O [Selaginose, selaginose] | − | − | − | − |  |  |  | 
9 | isomaltosyl glucoside | − | − | − | − |  |  |  | 
10 | maltoheptaose | +++ | +++ | +++ | +++ |  |  |  | 
11 | maltohexaose | +++ | +++ | +++ | +++ |  |  |  | 
12 | maltopentaose | +++ | +++ | +++ | +++ |  |  |  | 
13 | maltotriose | ++ | ++ | ++ | ++ |  |  |  | 
